Laboratory results: USRE32992E, “Peptide process for preparation thereof and use thereof” (priority 1978, dated 1989)

System: reticuloendotherial system
Experiment: Blood stream clearance of carbon
Format: in vivo, Mice (DDY male 5-6 W)
Procedure: 1. Carbon suspension. Rotoring drawing ink (170 mg carbon/ml.) was diluted to 1/5 of the original concentration in saline containing 1% gelatin.
2. 0.1% aqueous sodium carbonate solution.
Mice (DDY male 5-6 W) were injected via the tail vein with a dose of 0.01 ml/g body weight of carbon. Blood samples were taken by means of a pointed capillary pippet calibrated to hold a 50 μl and previously washed in heparin. This was plunged into the retrooribital venous sinus at the nasal angle of the eye. The samples were removed at 3 and to 6 min.
The blood was immediately discharged into 3.0 ml. of the sodium carbonate solution. This hemolyszed the blood and allowed the quantitation of carbon. The samples were then read in a spectrophotometer at 660 nm, the log concentration being obtained from a previously determined standard curve. The clearance value K may be determined by plotting log carbon concentration against time according to the following relationship; [formula] in which T1 and T2 represent the time in min when the sample were withdrawn and C1 and C2 represent the concentrations of carbon in the blood at the time T1 and T2, respectively.
The aqueous solution of the test compound as given was administered subcutaneously to mice. Twenty four hours later, blood stream clearance of carbon was measured. K value obtained with treated mice was compared with that of control mice.

## c1ccc([C@H]2CN3CCSC3=N2)cc1 [Levamisol]
Dose 10 mg/mouse
  Ktreated/Kcontrol: death

## Tuftsin
Dose 125 mg/mouse
  Ktreated/Kcontrol: 1.0
Dose 400 mg/mouse
  Ktreated/Kcontrol: 1.4
